According to PubChem BioAssay AID248 (DTP/NCI, 2004):
Several values for one entry are separate records, joined by “and”; a condition that tells them apart may be missing. Equal values may be shown once. Toxic doses and inconclusive results are not listed. Rule as the data show it: active = T/C of 150% or more; inactive = T/C below 125%.

Tested on: L1210 leukemia ip in BDF1 mice, survival T/C
Experiment: NCI In Vivo Anticancer Drug Screen. Data for tumor model L1210 Leukemia (intraperitoneal) in B6D2F1 (BDF1) mice
Details: endpoint: mean survival time, higher = longer survival
Outline: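 Survival endpoint. Drug-treated group vs vehicle group, expressed as T divided by C. Tumor passaged by transplantation.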

[1] = dose: 50.0 mg/kg/injection, schedule: Q01DX009 (ip), vehicle: Klucel (hydroxypropylcellulose) (HPC)
[2] = dose: 100.0 mg/kg/injection, schedule: Q01DX009 (ip), vehicle: saline with Tween-80
[3] = dose: 200.0 mg/kg/injection, schedule: Q01DX009 (ip), vehicle: saline with Tween-80
[4] = dose: 100.0 mg/kg/injection, schedule: Q01DX001 (ip), vehicle: saline
[5] = dose: 200.0 mg/kg/injection, schedule: Q01DX001 (ip), vehicle: saline
[6] = dose: 400.0 mg/kg/injection, schedule: Q01DX001 (ip), vehicle: saline

Measured: T/C

Cc1ccc(P(=O)(O)O)cc1C
inactive: dose: 37.5 mg/kg/injection, schedule: Q01DX009 (ip), vehicle: saline 101 % of control | [1] 101 % of control | dose: 75.0 mg/kg/injection, schedule: Q01DX009 (ip), vehicle: saline 89 % of control | dose: 100.0 mg/kg/injection, schedule: Q01DX009 (ip), vehicle: Klucel (hydroxypropylcellulose) (HPC) 95 % of control | dose: 100.0 mg/kg/injection, schedule: Q04DX003 (ip), vehicle: saline 100 % of control | dose: 150.0 mg/kg/injection, schedule: Q01DX009 (ip), vehicle: saline 87 % of control | dose: 200.0 mg/kg/injection, schedule: Q01DX009 (ip), vehicle: Klucel (hydroxypropylcellulose) (HPC) 101 % of control | dose: 200.0 mg/kg/injection, schedule: Q04DX003 (ip), vehicle: saline 88 % of control

CC(C(=O)c1ccccc1)C(N[N+](C)(C)C)c1ccccc1 (centres undefined)
inactive: dose: 6.25 mg/kg/injection, schedule: Q04DX003 (ip), vehicle: saline 91 % of control | dose: 12.5 mg/kg/injection, schedule: Q04DX003 (ip), vehicle: saline 97 % of control | dose: 25.0 mg/kg/injection, schedule: Q04DX003 (ip), vehicle: saline 97 % of control

CCOC(=O)C1(CCCN2C(=O)c3ccccc3C2=O)CC(C(=O)OCC)(C(=O)OCC)CCC1=O (centres undefined)
inactive: dose: 100.0 mg/kg/injection, schedule: Q04DX002 (ip), vehicle: saline with Tween-80 94 % of control | dose: 200.0 mg/kg/injection, schedule: Q04DX002 (ip), vehicle: saline with Tween-80 100 % of control

CCCCCCCCC1N(C)CCCN1C
inactive: dose: 12.5 mg/kg/injection, schedule: Q01DX009 (ip), vehicle: saline with Tween-80 98 % of control | dose: 25.0 mg/kg/injection, schedule: Q01DX001 (ip), vehicle: saline with Tween-80 105 % of control | dose: 25.0 mg/kg/injection, schedule: Q01DX009 (ip), vehicle: saline with Tween-80 86 % of control | dose: 50.0 mg/kg/injection, schedule: Q01DX001 (ip), vehicle: saline with Tween-80 105 % of control | dose: 50.0 mg/kg/injection, schedule: Q01DX009 (ip), vehicle: saline with Tween-80 98 % of control and 101 % of control | dose: 100.0 mg/kg/injection, schedule: Q01DX001 (ip), vehicle: saline with Tween-80 97 % of control and 101 % of control

CCCCCCCCCC(=O)N1CCCCC1CC (centres undefined)
inactive: dose: 100.0 mg/kg/injection, schedule: Q01DX001 (ip), vehicle: carboxymethylcellulose (CMC) 103 % of control | dose: 100.0 mg/kg/injection, schedule: Q01DX009 (ip), vehicle: carboxymethylcellulose (CMC) 94 % of control and 95 % of control | dose: 100.0 mg/kg/injection, schedule: Q04DX002 (ip), vehicle: carboxymethylcellulose (CMC) 100 % of control and 92 % of control | dose: 100.0 mg/kg/injection, schedule: Q04DX003 (ip), vehicle: carboxymethylcellulose (CMC) 92 % of control | dose: 200.0 mg/kg/injection, schedule: Q01DX001 (ip), vehicle: carboxymethylcellulose (CMC) 101 % of control | dose: 200.0 mg/kg/injection, schedule: Q01DX009 (ip), vehicle: carboxymethylcellulose (CMC) 95 % of control and 102 % of control | dose: 200.0 mg/kg/injection, schedule: Q04DX002 (ip), vehicle: carboxymethylcellulose (CMC) 103 % of control and 92 % of control | dose: 200.0 mg/kg/injection, schedule: Q04DX003 (ip), vehicle: carboxymethylcellulose (CMC) 95 % of control | dose: 400.0 mg/kg/injection, schedule: Q01DX001 (ip), vehicle: carboxymethylcellulose (CMC) 95 % of control | dose: 400.0 mg/kg/injection, schedule: Q04DX002 (ip), vehicle: carboxymethylcellulose (CMC) 95 % of control and 96 % of control | dose: 400.0 mg/kg/injection, schedule: Q04DX003 (ip), vehicle: carboxymethylcellulose (CMC) 97 % of control

O=c1[nH]c(=O)c2c3c(sc2[nH]1)CCCC3
inactive: dose: 100.0 mg/kg/injection, schedule: Q01DX001 (ip), vehicle: saline sonified 91 % of control | dose: 200.0 mg/kg/injection, schedule: Q01DX001 (ip), vehicle: saline sonified 91 % of control | dose: 400.0 mg/kg/injection, schedule: Q01DX001 (ip), vehicle: saline sonified 103 % of control

CN1C(=O)C2C(N=CN2C)N(C)C1=O (centres undefined)
inactive: [2] 96 % of control | [3] 90 % of control

COc1cc2c(cc1OC)C13CCN4CC5=CCOC6CC(=O)N2C1C6C5CC43O (centres undefined)
inactive: [4] 89 % of control | [5] 86 % of control | [6] 89 % of control

N#CCC(C#N)N1CCCCC1 (centres undefined)
inactive: dose: 0.39 mg/kg/injection, schedule: Q01DX009 (ip), vehicle: other 100 % of control | dose: 0.78 mg/kg/injection, schedule: Q01DX009 (ip), vehicle: other 96 % of control | dose: 1.56 mg/kg/injection, schedule: Q01DX009 (ip), vehicle: other 94 % of control | dose: 3.12 mg/kg/injection, schedule: Q04DX003 (ip), vehicle: other 94 % of control | dose: 6.25 mg/kg/injection, schedule: Q04DX003 (ip), vehicle: other 100 % of control | dose: 12.5 mg/kg/injection, schedule: Q01DX001 (ip), vehicle: other 103 % of control | dose: 12.5 mg/kg/injection, schedule: Q04DX003 (ip), vehicle: other 100 % of control

CN(C)C(=O)C1CCC1
inactive: [2] 91 % of control | dose: 100.0 mg/kg/injection, schedule: Q04DX003 (ip), vehicle: saline with Tween-80 103 % of control | [3] 105 % of control | dose: 200.0 mg/kg/injection, schedule: Q04DX003 (ip), vehicle: saline with Tween-80 101 % of control | dose: 400.0 mg/kg/injection, schedule: Q01DX009 (ip), vehicle: saline with Tween-80 100 % of control | dose: 400.0 mg/kg/injection, schedule: Q04DX003 (ip), vehicle: saline with Tween-80 104 % of control

C=CC12CCCCC1C(=C)C(=O)OC2 (centres undefined)
inactive: dose: 12.5 mg/kg/injection, schedule: Q04DX002 (ip), vehicle: saline with Tween-80 92 % of control | dose: 25.0 mg/kg/injection, schedule: Q04DX002 (ip), vehicle: saline with Tween-80 99 % of control | dose: 50.0 mg/kg/injection, schedule: Q04DX002 (ip), vehicle: saline with Tween-80 96 % of control

C=CCNc1cc(NN)nn2nnnc12
inactive: dose: 100.0 mg/kg/injection, schedule: Q04DX002 (ip), vehicle: Klucel (hydroxypropylcellulose) (HPC) 108 % of control | dose: 200.0 mg/kg/injection, schedule: Q04DX002 (ip), vehicle: Klucel (hydroxypropylcellulose) (HPC) 104 % of control | dose: 400.0 mg/kg/injection, schedule: Q04DX002 (ip), vehicle: Klucel (hydroxypropylcellulose) (HPC) 123 % of control

O=C(O)CN(Cc1ccccc1)C(=O)COc1ccc(Cl)c(Cl)c1
inactive: dose: 100.0 mg/kg/injection, schedule: Q04DX003 (ip), vehicle: gum acacia 100 % of control | dose: 200.0 mg/kg/injection, schedule: Q04DX003 (ip), vehicle: gum acacia 92 % of control | dose: 400.0 mg/kg/injection, schedule: Q04DX003 (ip), vehicle: gum acacia 91 % of control

CC(C)=CCC(CCN1CCOCC1)(C(N)=O)c1cccc2ccccc12 (centres undefined)
inactive: dose: 6.25 mg/kg/injection, schedule: Q04DX003 (ip), vehicle: Klucel (hydroxypropylcellulose) (HPC) 104 % of control | dose: 12.5 mg/kg/injection, schedule: Q01DX009 (ip), vehicle: Klucel (hydroxypropylcellulose) (HPC) 96 % of control | dose: 12.5 mg/kg/injection, schedule: Q04DX003 (ip), vehicle: Klucel (hydroxypropylcellulose) (HPC) 94 % of control | dose: 25.0 mg/kg/injection, schedule: Q01DX009 (ip), vehicle: Klucel (hydroxypropylcellulose) (HPC) 104 % of control | dose: 25.0 mg/kg/injection, schedule: Q04DX003 (ip), vehicle: Klucel (hydroxypropylcellulose) (HPC) 98 % of control | [1] 90 % of control

Cc1ccc(N=Nc2c(C)nc(N)nc2C)c(C)c1
inactive: dose: 75.0 mg/kg/injection, schedule: Q01DX001 (ip), vehicle: other 98 % of control | dose: 150.0 mg/kg/injection, schedule: Q01DX001 (ip), vehicle: other 98 % of control | dose: 300.0 mg/kg/injection, schedule: Q01DX001 (ip), vehicle: other 98 % of control

COS(C)(=O)=O
inactive: dose: 12.5 mg/kg/injection, schedule: Q01DX010 (ip), vehicle: saline 101 % of control and 91 % of control | dose: 25.0 mg/kg/injection, schedule: Q01DX010 (ip), vehicle: saline 102 % of control and 106 % of control | dose: 25.0 mg/kg/injection, schedule: Q01DX Z (ip), vehicle: carboxymethylcellulose (CMC) 97 % of control | dose: 50.0 mg/kg/injection, schedule: Q01DX010 (ip), vehicle: saline 96 % of control and 106 % of control | dose: 50.0 mg/kg/injection, schedule: Q01DX Z (ip), vehicle: carboxymethylcellulose (CMC) 106 % of control | dose: 100.0 mg/kg/injection, schedule: Q01DX010 (ip), vehicle: saline 95 % of control and 102 % of control | dose: 100.0 mg/kg/injection, schedule: Q01DX Z (ip), vehicle: carboxymethylcellulose (CMC) 95 % of control

CC1=C(N2CCN(c3ccc(Cl)cc3)CC2)C(=O)CC(C)(C)C1
inactive: [4] 97 % of control | [5] 101 % of control | [6] 103 % of control
